# Data as given in US8324250B2 (Hoffmann-La Roche Inc., priority 2009, dated 2012).
# System: not given
# Test: not given
# Conditions: phase II trial; negative symptoms (depression, anhedonia, social isolation, memory and attention deficits); cited from earlier work
row,SMILES,activity in the treatment of negative symptoms of schizophrenia
1,"CC(=O)N(C)C1(c2ccccc2)CCN(CCC[C@]2(c3ccc(Cl)c(Cl)c3)CCCN(C(=O)c3ccccc3)C2)CC1 [SR 142,801, Osanetant]",inactive

# Same assay, conditions: phase II trial; positive symptoms (altered behaviour, delusion, hallucinations, extreme emotions, excited motor activity, incoherent speech); cited from earlier work
row,SMILES,activity on positive symptoms of schizophrenia
1,"CC(=O)N(C)C1(c2ccccc2)CCN(CCC[C@]2(c3ccc(Cl)c(Cl)c3)CCCN(C(=O)c3ccccc3)C2)CC1 [SR 142,801, Osanetant]",active

# Molecular target: T1, recombinant human NK3 receptor (Homo sapiens, UniProt P29371)
# T1 construct: expressed in transfected cells; host or cells: HEK293 cells (transient expression), membranes
# T1 sequence (P29371 1-465): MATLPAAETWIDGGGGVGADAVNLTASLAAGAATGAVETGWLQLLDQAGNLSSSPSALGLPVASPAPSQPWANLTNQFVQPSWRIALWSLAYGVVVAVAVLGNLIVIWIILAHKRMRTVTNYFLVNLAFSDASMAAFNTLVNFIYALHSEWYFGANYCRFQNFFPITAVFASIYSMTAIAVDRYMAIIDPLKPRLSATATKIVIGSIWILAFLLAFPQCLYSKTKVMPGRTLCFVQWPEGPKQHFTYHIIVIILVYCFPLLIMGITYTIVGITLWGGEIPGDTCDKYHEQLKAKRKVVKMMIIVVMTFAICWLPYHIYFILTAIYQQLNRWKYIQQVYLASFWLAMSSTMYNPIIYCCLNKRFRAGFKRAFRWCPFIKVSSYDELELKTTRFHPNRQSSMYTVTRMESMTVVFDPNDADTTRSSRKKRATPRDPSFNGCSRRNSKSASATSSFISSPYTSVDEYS
# Test: [3H]SR142801 competition binding assay
# Conditions: membranes from HEK293 cells transiently expressing recombinant human NK3 receptor; [3H]SR142801 radioligand; 75 min at RT; Ki by Cheng-Prussoff; read-out: Data Ki (hNK-3 receptor affinity)
# Procedure, shortened: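 Membranes from HEK293 cells transiently expressing the receptor, 5 μg protein/well, in 50 mM Tris-HCl pH 7.4 with 4 mM MnCl2, 1 μM phosphoramidon, 0.1% BSA; nonspecific binding defined with 10 μM SB222200. Filtration and scintillation counting; IC50 from Hill fit, Ki by Cheng-Prussoff using saturation-derived KD, duplicates.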
row,SMILES,Ki [nM]
1,"C[C@H](NC(=O)C1(c2ccccc2)CCN(C(=O)c2csc(-c3cccnc3)n2)CC1)c1ccccc1 [Example 28, 4-Phenyl-1-(2-pyridin-3-yl-thiazole-4-carbonyl)-piperidine-4-carboxylic acid ((S)-1-phenyl-ethyl)-amide]",76.2
2,"C[C@H](NC(=O)C1(c2ccccc2)CCN(C(=O)c2ccc(N3CCCCC3)cc2)CC1)c1ccccc1 [Example 11, 4-Phenyl-1-(4-piperidin-1-yl-benzoyl)-piperidine-4-carboxylic acid ((S)-1-phenyl-ethyl)-amide]",44

# The next lines start with the values.
row,Ki [nM],SMILES
1,63.9,"Cc1nnc(C)n1C1CCN(C(=O)N2CCC(C(=O)N[C@@H](C)c3ccccc3)(c3ccccc3)CC2)CC1 [Example 220, 1-[4-(3,5-Dimethyl-[1,2,4]triazol-4-yl)-piperidine-1-carbonyl]-4-phenyl-piperidine-4-carboxylic acid ((S)-1-phenyl-ethyl)-amide]"
2,2.2,"Cc1noc(-c2ccc(C(=O)N3CCC(C(=O)N[C@H](c4cccc(F)c4)C4CC4)(c4ccc(F)cc4)CC3)cc2)n1 [Example 196, 4-(4-Fluoro-phenyl)-1-[4-(3-methyl-[1,2,4]oxadiazol-5-yl)-benzoyl]-piperidine-4-carboxylic acid [(S)-cyclopropyl-(3-fluoro-phenyl)-methyl]-amide]"
3,79.8,"C[C@H](NC(=O)C1(c2ccccc2)CCN(C(=O)N2CCN(c3ccc(Cl)cn3)CC2)CC1)c1ccccc1 [Example 206, 1-[4-(5-Chloro-pyridin-2-yl)-piperazine-1-carbonyl]-4-phenyl-piperidine-4-carboxylic acid ((S)-1-phenyl-ethyl)-amide]"
4,5.8,"O=C(c1ccc(-c2ccc(F)cc2)cc1)N1CCC(C(=O)NC(CC2CC2)c2ccccc2)(c2ccc(F)cc2)CC1 (stereo not drawn) [Example 148, 1-(4′-Fluoro-biphenyl-4-carbonyl)-4-(4-fluoro-phenyl)-piperidine-4-carboxylic acid (2-cyclopropyl-1-phenyl-ethyl)-amide]"
5,10.9,"CC(C)C(NC(=O)C1(c2ccc(F)cc2)CCN(C(=O)c2ccc(-c3ccc(F)cc3)cc2)CC1)c1ccc(F)cc1 (stereo not drawn) [Example 144, 1-(4′-Fluoro-biphenyl-carbonyl)-4-(4-fluoro-phenyl)-piperidne-4-carboxylic acid [1-(4-fluoro-phenyl)-2-methyl-propyl]-amide]"
